Test results as given in patent US5512573A, “Use of phthaloylhydrazide derivatives as anti-hypoxic and defensive agents” (priority 1993, dated 1996).
In brackets after ≈: the same amount, converted by molar mass. Where two headings read alike, the source gives them in different places.

Experiments:
mice, rats = conditions: oral and i.p., 500 and 2500 mg/kg, 14 days
Experimental: Acute toxicity tests were performed on two animal species (mice, rats). More than 80 mice and 100 rats were used. The pharmaceutical was administered orally and intraperitoneally in doses of 500 and 2500 mg/kg (individual doses). The period of observation was 14 days.

[1] = test system: S. typhi TA 100, TA 102, and TA 97; experiment: Mutagenicity, Ames' bacterial testing method; conditions: 0.01 and 2 mg/ml; rat liver microsomes
Experimental: Mutagenicity was measured by means of Ames' bacterial testing method. The tests were performed with strains of S. typhi TA 100, TA 102, and TA 97. The microsome activator method was used whereby rat liver was induced with methylcolanthrene.

[2] = test system: lymphocytes, macrophages and fibroblasts; conditions: 24-hour in vitro, 0.01 to 0.8 mmols/liter
Experimental: The cells used as subject matter included lymphocytes, macrophages and fibroblasts. Viability following a 24-hour in vitro exposure with 5-aminophthaloylhydrazide in concentrations of 0.01 to 0.8 mmols/liter was determined by means of protein incorporation and/or synthesis.

male rats = test system: male rats
Experimental: The effect of the sodium salt of 5-aminophthaloylhydrazide on blood pressure (BP) was examined in male rats weighing 230 to 270 g, in a controlled experiment where the rats were anesthetized with urethane. The blood pressure was recorded on tape by means of an electrical kymograph.
At the same time, we recorded the electrocardiogram in the second standard position as well as any changes in frequency and depth of respiration by means of a Morey capsule. We administered 5-aminophthaloylhydrazide in the femoral vein in the form of an aqueous solution prepared in a 2% sodium bicarbonate solution (pH=8.2), in doses of 40 mg/kg, 80 mg/kg and 50 mg/kg. Research on 5-aminophthaloylhydrazide was performed on 16 rats.

[3] = test system: Corazolum- and strychnine-induced convulsions; conditions: 40 and 80 mg/kg
female pregnant rats = conditions: 60 mg/kg i.p.
Experimental: Teratogenic tests and embryotoxicity tests were performed on 58 female pregnant rats. A single dose was injected intraperitoneally on days 1, 3, 7, 10, 14 and 17 of gestation (60 mg/kg). The rats were decapitated on day 21 of the pregnancy and the uteruses and fetuses were examined.

animal organisms = experiment: Pharmacological studies, general toxicity statement; conditions: in vivo
physchem [4] = conditions: octanol/water, pH 7.4
physchem [5] = experiment: physchem
[6] = test system: leukocytes in ischemic tissue; surviving animals; conditions: intramuscular injections, p>0.05
Hexenalum-induced sleep = conditions: 10 to 30 mg/kg, 15 min before Hexenalum 80 mg/kg
Experimental: The effect of the drug on the length of Hexenalum-induced anesthesia was studied, i.e., the drug was administered in doses of 10 to 30 mg per kilogram of body weight, 15 minutes before the administration of the Hexenalum solution in a dose of 80 mg/kg.

[7] = test system: high-level hypoxia in male mice
Experimental: Experiments to test the resistance of the animals to high-level hypoxia were performed on 120 male mice weighing 18 to 20 g, and having reached sexual maturity.
Five minutes before the experiment, the animals were given the following doses intramuscularly:
the first group (control group), 0.1 ml of physiological solution;
the second group (test group), a 20% oil solution in a dose of 30 mg/kg;
the third group, 5-aminophthaloylhydrazide in a dose of 30 mg/kg;
the fourth group, 5-aminophthaloylhydrazide in a dose of 60 mg/kg;
the fifth group, 5-aminophthaloylhydrazide in a dose of 80 mg/kg;
the sixth group, 5-aminophthaloylhydrazide in a dose of 150 mg/kg;
the seventh group, the drug in a dose of 200 mg/kg.
The period of tolerance to hypoxia was determined by raising the animals to an altitude of 10,400 meters at the speed of 100 meters per second.

guinea pigs = test system: guinea pigs
Description: The allergenic activity of the drug was examined in guinea pigs.

[8] = test system: brain ischemia (carotid tying) in mice; experiment: Example 4: carotid tying and release in mice; format: in vivo
Experimental: We performed experiments on 50 mice of the pyramid by tying the carotid under light anesthesia. After 7 minutes, we released the tie and restored the blood circulation in the ischemic area.

physchem [9] = experiment: physchem; remark: listed apart in the source
transplant rejection = experiment: Skin transplant from another animal (description); format: in vivo; conditions: 100 to 200 mg/kg
Description: Treatment started on the second day following a skin transplant from another animal and continued for 45 to 50 days.

With `Nc1cccc2c(=O)[nH][nH]c(=O)c12` [5-aminophthaloylhydrazide, 5-amino-2,3-dihydrophthalazine-1,2 dione] the “morphological alteration of liver, kidneys, heart and brain” value (mice, rats) was “No morphological alteration was observed”, the “percentage of lethal outcome” value (mice, rats; vs control group) was “did not exceed that of the control group” and the clinical symptoms (generalized psoriasis; 20 mg/kg for 10 days) was “elimination of the itching and a lessening of the skin symptoms”. The skin clearance (generalized psoriasis; after a 30-day treatment) was “the skin was completely clear”, the “number of neutrophils in the epidermal cells” value (generalized psoriasis; biopsy samples) was “considerable drop in the number of neutrophils in the epidermal cells” and the remission period (generalized psoriasis; human, in vivo) was 8 months. The “skin symptoms after topical application” value (generalized psoriasis; solution of the drug in 15% DMSO) was “led quickly to the disappearance of the skin symptoms, including the pustules”, the “inhibitory or mutagenic activity” value [1] was “does not posses inhibitory or mutagenic activity” and the “toxicity (viability by protein incorporation and/or synthesis)” value [2] was “No toxicity was observed for any of the dosage levels tested”. For the same compound, the “clinical picture of psoriasis” value (psoriasis patients; 12 to 20 mg/kg daily) was “the itching disappeared, the temperature went down and the surface area of the affected zone shrunk”, the “epithelization of the pustules” value (psoriasis patients; drug plus topical 4% solution in 10% DMSO) was “epithelization of the pustules occurred” and the electrocardiogram parameters (male rats; 20 mg and 50 mg/kg) was “no changes were observed in the electrocardiogram parameters of the heart”. The respiratory functions (male rats; 20 mg and 50 mg/kg) was “no impairment of the respiratory functions was observed”, the “negative effect on the cardiovascular system or the respiration” value (male rats; 40 and 50 mg/kg) was “did not present any evidence of a negative effect on the cardiovascular system or the respiration” and the “rise in blood pressure compared to the initial level” value (male rats; i.v. 1% solution, 0.6 ml/minute, average) was 1.57±5.93%. For the same compound, the “sudden fluctuations in the increase in blood pressure” value (male rats; i.v., 40 mg or 50 mg/kg) was “No sudden fluctuations in the increase in blood pressure were observed”, the “time for blood pressure to return to the initial level” value (male rats; i.v., average) was no more than 30 min and the “fluctuations in the level of blood pressure compared to the beginning” value (male rats; thirty minutes after administration, average) was 2.79±0.72. For the same compound, the “reduction of induced convulsions” value [3] was “did not reduce the induced convulsions”, the “prevention of Corazolum- and strychnine-induced convulsions” value ([3]; preventive administration) was “did not prevent Corazolum- and strychnine-induced convulsions” and the “abnormality of the fetuses” value (female pregnant rats; single dose on days 1, 3, 7, 10, 14 and 17 of gestation) was “No abnormality of the fetuses was observed”. The “site of uterine attachment, number, weight and mortality of the fetuses” value (female pregnant rats; vs control group) was “did not differ from those obtained for the control group”, the “toxicity in animal organisms” value (animal organisms) was “absence of toxicity” and the “effects of acute focal hypoxia” value (acute focal hypoxia; in a series of cases) was “it was possible to prevent the effects of acute focal hypoxia”. For the same compound, the “therapeutic effect by number of administrations” value (acute focal hypoxia; single vs two administrations at 12-hour intervals) was “a single administration of the drug proved insufficient and the main therapeutic effect was obtained after two administrations”, the stability (anhydrous conditions) was “stable in anhydrous conditions (can be preserved for over one year)” and the “stability in aqueous solutions” value (aqueous solutions) was “sometimes unstable in aqueous solutions”. The logD (physchem [4]) was -0.699, the pKa (physchem [5]) was 6.3 and the “percentage of surviving animals” value [6] was 60%. For the same compound, the “extension of Hexenalum-induced sleep” value (Hexenalum-induced sleep) was “did not cause a noteworthy extension of the Hexenalum-induced sleep”, the “therapeutic effectiveness vs Dibunolo” value ([7]; 30 mg/kg) was “less therapeutically effective than the known antioxidant Dibunolo” and the “therapeutic effectiveness vs Dibunolo” value ([7]; 100 mg, p<0.001) was “exceeded that of Dibunolo in a reliable manner”. The “dose with the greatest therapeutic effect” value ([7]; intramuscular) was 80 mg/kg, the “extension of life under high-level hypoxia” value ([7]; intramuscular, all doses) was “extended life under conditions of high-level hypoxia in all cases” and the “therapeutic effect on last increase in dose” value ([7]; last increase in administered amount) was “did not increase the therapeutic effect achieved”. For the same compound, the local irritation (guinea pigs; 20 to 100 mg) was “no symptoms of local irritation”, the “erythema at the site of administration” value (guinea pigs; even large doses) was “No erythema was observed at the site of administration” and the signs of allergy (guinea pigs; subcutaneously or orally) was “No signs of allergy were observed”. The “percentage of surviving animals” value ([8]; 30 mg/kg, p>0.05) was “did not increase”, the “cases with symptoms of neurological impairment” value ([8]; 100 mg/kg intramuscular) was 3 cases and the “effectiveness of intramuscular administration” value ([8]; 100 mg/kg intramuscular) was “the intramuscular administration of the drug was not effective”. The surviving animals ([8]; 100 mg/kg intramuscular) was “Six out of 10”, the “cases without symptoms of neurological impairment” value ([8]; 100 mg/kg intravenous) was 8 cases and the surviving animals ([8]; 100 mg/kg intravenous) was 9 out of 10. The “cases with symptoms of damage to the central nervous system” value ([8]; 150 mg/kg) was 2 cases, the surviving animals ([8]; 150 mg/kg) was 80% and the “survival rate on further dose increase” value ([8]; above 100 mg/kg) was “did not lead to a reliable increase in the survival rate”. For the same compound, the “surviving animals without symptoms of neurological impairment” value ([8]; two administrations of 100 mg/kg, 12-hour interval) was 9 animals, the solubility (physchem [9]; pH 6.5) was 2 mM (≈ 354 µg/mL) and the solubility (physchem [9]; pH 7.4) was 12 mM (≈ 2130 µg/mL). For the same compound, the “effectiveness vs hormonal drugs (corticosteroids)” value (transplant rejection) was “exceeds the hormonal drugs with long-term action known thus far (corticosteroids)”.
